{"source": "a melting point compilation (Tetko et al.; mined from patent text by program, amines drawn as free bases though some values may be those of a salt)"}
{"units": {"melting point": "°C"}}
{"smiles": "CC(CN(C)C)C(C#N)(c1ccccc1)c1ccccc1", "note": "(single isomer, unassigned; (-))", "melting point": "102 to 103"}
{"smiles": "O=C(O)CCc1cn(Cc2ccc(OCc3ccc(-c4ccccc4)nc3)cc2)nc1-c1ccccc1", "melting point": "155 to 156"}
{"smiles": "N#Cc1c[nH]c(-c2ccc(F)cc2)c1", "melting point": "158 to 159"}
{"smiles": "COc1ccc(CN(C)CCCCc2ccc(NC(=O)c3cccc4c(=O)c5cccc(OC)c5[nH]c34)cc2)cc1OC", "melting point": 157}
{"smiles": "O=C1CCc2cc(CN3CCN(C(=O)c4ccc(Oc5ccc(NC(=O)c6ccc(C(F)(F)F)cc6)cn5)cc4)CC3)ccc2N1", "melting point": "250 to 252"}
{"smiles": "CCOC(=O)C(=CNc1ccc(F)c(-c2ccncc2)n1)C(=O)OCC", "melting point": "140 to 141"}
{"smiles": "Cn1cncc1C(O)(c1ccc(Cl)cc1)c1ccc2c(c1)C(c1cccc(Cl)c1)n1nnnc1N2", "note": "(stereo not drawn)", "melting point": "> 260"}
{"smiles": "COC(=O)c1cc2c(cc1O)OCO2", "melting point": "100 to 101"}
{"smiles": "COC(=O)CCCCCCCCOC1OC(CO)C(O)C(OC2OC(CO)C(O)C(O)C2OC2OC(C)C(O)C(O)C2O)C1NC(C)=O", "note": "(stereo not drawn)", "melting point": 195}
{"smiles": "Cc1c(NC(=O)c2ccc(OC[C@@H]3CCCO3)cc2)ccc2cc(CN[C@H](C)C(C)(C)C)cnc12", "melting point": "140 to 141"}
{"smiles": "CCCc1ccnc2c(=O)[nH]c(-c3cc(S(=O)(=O)NCCN4CCOCC4)ccc3OCC)nc12", "melting point": "165 to 166"}
{"smiles": "COc1ccc2nc(-c3ccc(OC)c(F)c3)cc(O)c2c1", "melting point": "326 to 328"}
{"smiles": "CCNC1CN(c2c(F)cc3c(=O)c(C(=O)O)cn(C4CC4)c3c2F)C1", "melting point": "222 to 227"}
{"smiles": "Cc1nc(-c2nc(=O)c3ccccc3s2)cs1", "melting point": "219 to 220"}
{"smiles": "CCCc1nc2c(N)nc(C)c(C)c2n1CCCS(=O)(=O)c1ccc(Cl)cc1", "melting point": "186 to 188"}
{"smiles": "CCCCCCCCCCCCCCCCCCNc1nc(N)nc(N)n1", "melting point": 91}
{"smiles": "Nc1nc2c(ncn2COCC(COC(=O)COc2ccccc2)OC(=O)COc2ccccc2)c(=O)[nH]1", "note": "(stereo not drawn)", "melting point": "95 to 100"}
{"smiles": "CC(C)(CO)CCCCCCCCCCCC(O)(CC(=O)O)CC(=O)O", "melting point": "102 to 103"}
{"smiles": "CCOC(=O)c1ncoc1-c1cc(OC)c(OC)c([N+](=O)[O-])c1", "melting point": "109 to 110"}
{"smiles": "CC(=O)N1c2ccc(F)cc2CC1C#N", "note": "(stereo not drawn)", "melting point": "93 to 95"}
{"smiles": "Cc1nc(CO)c2n1-c1ccc(Cl)cc1C(c1ccccc1F)=NC2", "melting point": "233 to 235"}
{"smiles": "CNc1sc(-c2cccnc2)nc1C(F)(F)F", "melting point": "152 to 157"}
{"smiles": "CC(C)(C)OC(=O)NC(C)(C)c1ccc(C(=O)O)cc1", "melting point": "205 to 208"}
{"smiles": "O=C(Nc1cccc(C(F)(F)F)c1)c1ccccc1SSc1ccccc1C(=O)Nc1cccc(C(F)(F)F)c1", "melting point": "167 to 168"}
{"smiles": "COc1ccc2c(c1)c1c3c(c(-c4ccccc4Cl)cc1n2CCC#N)C(=O)NC3=O", "melting point": "287 to 288"}
{"smiles": "CCOC(=O)c1cnn2c1nc(NC(C)CC)c1cnc3c(cnn3CC)c12", "note": "(stereo not drawn)", "melting point": "94 to 97"}
{"smiles": "COC1(c2cc(F)cc(OCc3ccc(N(C)S(C)(=O)=O)c(Cl)c3)c2)CCOCC1", "melting point": "126 to 128"}
{"smiles": "Cc1cc(NC(=O)Nc2ccc(N(CCCl)CCCl)cc2)cc(Nc2c3ccccc3nc3ccccc23)c1", "melting point": "280 to 285"}
{"smiles": "CN1CC[C@]2(c3cccc(O)c3)CC=CC[C@@H]2C1", "note": "(relative stereo)", "melting point": 159}
{"smiles": "CN(C(=O)Nc1nc(OCC(F)(F)F)nc(OCC(F)(F)F)n1)c1ccc(Cl)cc1", "melting point": "218 to 219"}
{"smiles": "OCC(O)Cc1ccccc1OCc1ccc2ccccc2c1", "note": "(stereo not drawn)", "melting point": "119 to 120"}
{"smiles": "O=C(O)c1cccc(Nc2ccc(-c3ccoc3)cc2[N+](=O)[O-])c1", "melting point": "203 to 205"}
{"smiles": "CCC12CCC3C4CCC(=O)C=C4CCC3C1CCC2OC(=O)CCC1CCCC1", "note": "(stereo not drawn)", "melting point": "88 to 89"}
{"smiles": "CS(=O)c1ncc2ccc(=O)n(-c3ccccc3)c2n1", "note": "(stereo not drawn)", "melting point": "248 to 250"}
{"smiles": "CCOC(CN1CCOCC1)CN1C(=O)c2ccccc2CS1(=O)=O", "note": "(stereo not drawn)", "melting point": "128 to 129"}
{"smiles": "Cc1cc(Cc2c(F)cc(N)cc2F)n(C)c1C(=O)c1ccc(Cl)cc1", "melting point": "208 to 210"}
{"smiles": "CC(C)(C)OC(=O)N1CCN(c2ccc(N)cc2)CC1", "melting point": "95 to 96"}
{"smiles": "CCCCc1nn(-c2cc(NC(=O)CC)ccc2Cl)c(=O)n1Cc1ccc(-c2ccccc2S(=O)(=O)NC(=O)c2occ(Cl)c2Cl)cc1", "melting point": "223 to 226"}
{"smiles": "CC(=O)N1CCC(c2nn(-c3ccccc3)c3cc(Br)ccc23)CC1", "melting point": "136 to 138"}
{"smiles": "Cc1cc2c(cc1Sc1ccc(C(=O)Nc3ccc(O)cc3)cc1)C(C)(C)CCC2(C)C", "melting point": "236 to 237"}
{"smiles": "COC(=O)c1nc2c(c(-c3ccccc3)nn2-c2ccccc2)c(N)c1C(=S)OC", "melting point": "160 to 161"}
{"smiles": "O=C(O)c1cc([N+](=O)[O-])c(Nc2ccccc2)c(S(=O)(=O)Nc2ccccc2)c1", "melting point": "249 to 250"}
{"smiles": "COc1ccc(C(=O)N(C)c2ccc(C(=O)O)cc2)cc1", "melting point": "157 to 160"}
{"smiles": "CN(C)C(=O)NC1(Cc2ccccc2)CCN(Cc2ccccc2)CC1", "melting point": 131}
{"smiles": "O=C(O)CNC(=O)n1cc(C(=O)c2ccn3c2CSC3c2cccnc2)c2ccc(-c3ccc(F)cc3)cc21", "note": "(stereo not drawn)", "melting point": 255}
{"smiles": "Nc1ccc(C(=O)c2cnc(NC3CCCCC3)s2)cc1[N+](=O)[O-]", "melting point": "245 to 250"}
{"smiles": "Cc1ccc(S(=O)(=O)NC(CCCCNC(=O)OCc2ccccc2)C(=O)O)cc1", "note": "(stereo not drawn)", "melting point": "120 to 121"}
{"smiles": "N#CC(C#N)=C1Sc2nc3ccc([N+](=O)[O-])cc3nc2S1", "melting point": "220 to 222"}
